Test results reported in publication PMC12847094, “Casticin inhibits AKR1C3 and enhances abiraterone efficacy in castration-resistant prostate cancer” (Journal of Natural Medicines, 2025).

Molecular target: T1, aldo-keto reductase 1C3 (AKR1C3) (Homo sapiens, UniProt P42330)
T1 construct: recombinant hAKR1C3 expressed in E. coli Rosetta (DE3), pET21b
Experiment: NADPH oxidation at […] nm with […],10-phenanthrenequinone, recombinant enzyme; also coumberone reduction in […]1 cells
Format: biochemical

T1 sequence (P42330 whole entry): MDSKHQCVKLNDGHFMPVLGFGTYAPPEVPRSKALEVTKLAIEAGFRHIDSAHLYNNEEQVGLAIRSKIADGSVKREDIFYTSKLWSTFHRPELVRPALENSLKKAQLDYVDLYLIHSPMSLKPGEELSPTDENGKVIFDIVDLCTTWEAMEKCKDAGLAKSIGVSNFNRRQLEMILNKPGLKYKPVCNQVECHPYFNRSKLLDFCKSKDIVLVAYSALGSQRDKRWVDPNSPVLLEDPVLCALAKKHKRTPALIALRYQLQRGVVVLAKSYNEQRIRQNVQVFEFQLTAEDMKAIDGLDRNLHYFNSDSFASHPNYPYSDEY

Q: Which IC50 does the source give for `COc1ccc(-c2oc3cc(OC)c(OC)c(O)c3c(=O)c2OC)cc1O` [CAS, casticin] here?
A: 5.99 µM
